From patent publication US20230381174A1, “THIONOESTER-DERIVATIVE OF RABEXIMOD FOR THE TREATMENT OF INFLAMMATORY AND AUTOIMMUNE DISORDERS” (Vironova Thionationl AB, priority 2020, published 2023)

Columns and labels:
[1] = test system: collagen antibody induced arthritis (CAIA); test: Collagen antibody induced arthritis (CAIA) mouse model; format: in vivo, mice (DBA/1); settings: for histological (IHC) score of front paws compared with vehicle: 20 mg/kg, at study termination, score 0-3, FIG. 8; for adverse effects from treatments: CAIA mice, any of the doses tested (5, 10, 20 mg/kg s.c.); for disease severity (macroscopic arthritis score) compared with vehicle: not significant
Source text: The collagen antibody induced arthritis (CAIA) arthritis in mice is a model independent of both B and T cells. CAIA is an acute model of arthritis and the disease is induced with antibodies to collagen type II. The antibodies bind to cartilage, leading to activation of the immune system followed by recruiting of macrophages and granulocytes to the joints. After an LPS boost at day five, disease progression starts and reaches a maximum around day 15. CAIA model: Mice (DBA/1, 8-10 weeks old) were weighed at day −1 for determination of mean weight of animals in the experiment and for composition of groups. Groups were mixed within cages to avoid cage effects. The mice were injected i.v. with a cocktail of four (4) monoclonal antibodies against collagen type II (2 mg/mouse) on day 0. Day 5 the mice were injected with LPS (50 μg/mouse) i.p., in order to boost the disease. Dose preparation of test items were performed daily in corn oil. Disease was evaluated daily from day 3 in a blinded fashion using a macroscopic scoring system of the four limbs ranging from 0 to 15 (1 point for each swollen or red toe, 1 point for a swollen or red mid foot digit or knuckle, 5 points for a swollen ankle) resulting in a maximum total score of 60 for each mouse. Due to ethical restrictions, animals with a score exceeding 45 were removed from the experiment. Immunohistochemistry: Front paws from animals, in the vehicle, Rabeximod (20 mg/kg) and the inventive compound (20 mg/kg) groups, were collected at termination of the animals. The paws were immediately transferred to 4% formaldehyde containing vials for immersion fixation. The tissues were fired for 24 hours and then transferred to 70% EtOH and stored at +4° C. until staining. Paws were decalcified, paraffin embedded, sectioned and stained for hematoxylin and eosin (H&E). Resulting slides were photographed at high resolution. Images were used for morphology analysis to study cartilage destruction and infiltration of inflammatory cells in the joints. An overall assessment for the whole paw were scored (0-3), including evaluation of synovial inflammation, synovial pannus formation and bone destruction. Graphs and statistical analysis were performed using Prism 8 for Mac OS X (GraphPad Software, San Diego, CA, USA). Results are presented as mean values±SEM, if not otherwise stated. Statistics were calculated using a two-tailed non-parametric Mann-Whitney test where p<0.05 was considered significant. * represents a p-value<0.05, ** represents a p-value<0.01 and *** represents a p-value<0.001.

[2] = test system: Reactive Oxygen Species (ROS) production in PBMCs; test: Isoluminol assay: ROS production in PMA-activated PBMCs; format: cell-based, human; settings: PBMCs activated with PMA at 30 ng/ml; luminescence measured over 25 minutes; FIGS. 1 and 2
Source text: Oxygen metabolism has an important role in the pathogenesis of both rheumatoid arthritis and multiple sclerosis. Reactive oxygen species (ROS) produced in the course of cellular oxidative phosphorylation, and by activated phagocytic cells during oxidative bursts, exceed the physiological buffering capacity and result in oxidative stress. The excessive production of ROS can damage protein, lipids, nucleic acids, and matrix components. ROS also serve as important intracellular signaling molecules that amplify the synovial inflammatory-proliferative response.
Frozen PBMCs, isolated from human blood (Blodcentralen, Lund, Sweden) through gradient centrifugation using Ficoll, were thawed quickly, activated with PMA at 30 ng/ml and treated with Rabeximod or the inventive compound, at different concentrations ranging from 12.5 μg/ml with 1:2 dose titrations over 8 steps. Controls included were DMSO control, PMA at 30 ng/ml and 0 μg/ml of test items. […] Cell concentration was determined using a Scepter cell counter (Millipore Merck, MA, USA) and diluted at 2×10^6 cells/ml when added to the assay plate. The luminescence signal was measured over 25 minutes.
ROS production was investigated after treatment with the inventive compound or Rabeximod at different concentrations ranging from 12.5 μg/ml with 1:2 dose titrations over 8 steps. Luminescence signal was measured over 25 minutes.

[3] = test system: TNF-α; test: LPS assay: TNF-α release in whole blood; format: cell-based, human; settings: LPS 500 ng/ml
Method: (§1) Inflammation can be induced in vitro by stimulation with LPS, manifested by the release of various cytokines. […] TNF-α, IL1β and IL-6 are important cytokines in the pathogenesis of RA and MS and therefore selected in this assay.
(§2) Whole blood was collected from an adult volunteer in Heparin tubes. LPS stimulation started within 60 minutes of blood draw. The blood was diluted with RPMI and then stimulated with LPS and incubated with different concentrations of either Rabeximod or the inventive compound. The samples were centrifuged and plasma harvested and analysed on Luminex to measure cytokines.
(§3) The release of cytokines and chemokines was investigated after stimulation of whole blood with LPS, and treatment with either the inventive compound or Rabeximod.

[4] = test system: IL-6; test: LPS assay: IL-6 release in whole blood; format: cell-based, human; settings: LPS 500 ng/ml
Method: as §1, §2, §3

[5] = test system: IL-1β; test: LPS assay: IL-1β release in whole blood; format: cell-based, human; settings: LPS 500 ng/ml
Method: as §1, §2, §3

[6] = test system: pristane-induced arthritis (PIA); test: Pristane-induced arthritis (PIA) rat model; format: in vivo; settings: 20 mg/kg s.c. days 5, 7, 9, 11, 13, 15
Source text: Pristane-induced arthritis (PIA) in rats is an animal model that mimics the criteria used for diagnosis of rheumatoid arthritis (RA). PIA is one of the most reproducible models of RA with high incidence and little variation in severity. Disease is characterized by a pronounced T cell dependent inflammatory response resulting in inflammation of peripheral joints. Disease is induced with a single injection of pristane and has a highly reproducible onset of arthritis between day 8-12. The most severe phase of arthritis is often between day 15-25 after induction and experiment can be terminated after 25-30 days. For disease induction rats were anaesthetized with IsoFlo vet (3%) and oxygen. The root of the tail was cleaned with EtOH and pristane was injected subcutaneously (s.c.) (volume 200 μl) approximately 0.5 cm from the root of the tail. A slight pressure was put on the injection site for 10 seconds after injections to prevent leakage of oil. Rats were removed from anaesthetics and the breathing was monitored until recovery was ensured. […] Disease was evaluated 3 times per week in a blinded fashion from day 10 using a macroscopic scoring system of the four limbs ranging from 0 to (1 point for each swollen or red toe, 1 point for a swollen or red mid foot digit or knuckle, […]) resulting in a maximum total score of 60 for each rat. […]

[7] = lower concentrations (from 312.5 nM, below 5000 nM)

Row | melting point | Compound | histological (IHC) score of front paws compared with vehicle [1] | adverse effects from treatments [1] | disease severity (macroscopic arthritis score) compared with vehicle ([1]; all three doses (5, 10 and 20 mg/kg) s.c. every other day from day 5, six administrations, FIG. 7) | concentration that inhibits ROS production completely [2] | level of TNF-α compared to Rabeximod ([3]; compound at 5000 nM, FIG. 3) | level of TNF-α compared to Rabeximod [3, 7] | dose-response of arthritis severity compared to Rabeximod ([1]; 5, 10 and 20 mg/kg s.c.) | disease severity (macroscopic arthritis score) compared with vehicle ([1]; 10 and 20 mg/kg s.c. every other day from day 5, six administrations, FIG. 6) | level of IL-6 compared to Rabeximod ([4]; compound at 5000 nM, FIG. 4) | level of IL-6 compared to Rabeximod [4, 7] | level of IL-1β compared to Rabeximod ([5]; compound at 5000 nM, FIG. 5) | level of IL-1β compared to Rabeximod [5, 7] | RA score (macroscopic arthritis score) ([6]; all study time points measured, FIG. 9) | efficacy during the most severe phase of arthritis ([6]; compared with Rabeximod)
1 | – | Cc1cc2nc3c4cc(Cl)ccc4n(CC(=O)NCCN(C)C)c3nc2cc1C [Rabeximod, 2-(9-chloro-2,3-dimethyl-6H-indolo[2,3-b]quinoxalin-6-yl)-N-(2-(dimethylamino)ethyl)acetamide] | No significant difference | No adverse effects | small decrease in disease severity | 12.5 µg/mL | – | – | – | – | – | – | – | – | – | –
2 | 184 to 188 °C | Cc1cc2nc3c4cc(Cl)ccc4n(CC(=S)NCCN(C)C)c3nc2cc1C [inventive compound, 2-(9-chloro-2,3-dimethyl-6H-indolo[2,3-b]quinoxalin-6-yl)-N-(2-(dimethylamino)ethyl)ethanethioamide] | significantly lower | No adverse effects | – | 6.25 µg/mL | significantly lower | trend of reduced cytokines levels | clear dose-response | small decrease in disease severity | significantly lower | trend of reduced cytokines levels | significantly lower | trend of reduced cytokines levels | slightly lower | better efficacy than Rabeximod
